Test results from US20260297109A1, “COMPOUNDS AS SUMO ACTIVATING ENZYME INHIBITORS” (WIGEN BIOMEDICINE TECHNOLOGY (SHANGHAI) CO., LTD., priority 2022, published 2026).
pIC50: −log10 of the molar value.

target: T1, SAE (Homo sapiens, UniProt Q9UBT2); test: SUMO IF: in vitro inhibitory activity assay against SAE in HCT116 cells (SUMO-2/3 immunofluorescence); format: cell-based; details: class symbols, 6 h at 37° C.
T1 construct: endogenous in cells; host or cells: HCT116
T1 sequence (Q9UBT2 1-640): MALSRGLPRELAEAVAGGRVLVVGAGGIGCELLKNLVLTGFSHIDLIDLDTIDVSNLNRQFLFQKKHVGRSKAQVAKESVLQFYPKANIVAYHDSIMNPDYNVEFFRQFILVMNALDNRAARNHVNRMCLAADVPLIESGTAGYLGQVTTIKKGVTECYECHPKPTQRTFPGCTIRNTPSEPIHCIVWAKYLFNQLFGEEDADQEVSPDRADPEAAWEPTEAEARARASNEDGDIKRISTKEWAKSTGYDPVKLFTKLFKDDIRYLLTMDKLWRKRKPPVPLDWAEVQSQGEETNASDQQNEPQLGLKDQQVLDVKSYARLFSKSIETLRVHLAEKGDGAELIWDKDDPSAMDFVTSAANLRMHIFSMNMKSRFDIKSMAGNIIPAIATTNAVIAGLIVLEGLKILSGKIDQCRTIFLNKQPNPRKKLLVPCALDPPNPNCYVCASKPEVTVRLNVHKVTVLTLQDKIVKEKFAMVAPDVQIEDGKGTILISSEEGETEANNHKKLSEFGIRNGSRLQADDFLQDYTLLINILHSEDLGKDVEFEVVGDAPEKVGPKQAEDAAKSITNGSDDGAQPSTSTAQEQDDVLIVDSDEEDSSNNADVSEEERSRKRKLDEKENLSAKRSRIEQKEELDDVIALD
T1 sequence (Q9UBE0 1-346): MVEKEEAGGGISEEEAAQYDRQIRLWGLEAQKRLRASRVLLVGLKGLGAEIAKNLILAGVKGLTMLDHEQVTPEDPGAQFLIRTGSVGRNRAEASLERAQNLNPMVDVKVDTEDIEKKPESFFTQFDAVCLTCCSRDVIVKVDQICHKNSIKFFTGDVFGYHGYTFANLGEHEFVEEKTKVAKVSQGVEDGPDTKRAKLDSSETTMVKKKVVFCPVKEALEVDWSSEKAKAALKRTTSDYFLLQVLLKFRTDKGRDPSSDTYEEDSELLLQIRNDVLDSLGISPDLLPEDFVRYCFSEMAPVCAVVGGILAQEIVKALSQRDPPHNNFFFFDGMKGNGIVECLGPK
In short: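 HCT116 cells were treated with compound for 6 h at 37 °C, then PFA-fixed, Triton-permeabilised and BSA-blocked. They were stained overnight at 4 °C with anti-SUMO-2/3 (18H8) rabbit mAb (1:400), then with FITC anti-rabbit IgG (1:300). Fluorescence versus DMSO gave inhibition rate and IC50.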

Q: How did the pIC50 turn out when `Cc1sc(C(=O)c2cncnc2N[C@H]2C[C@H](O)[C@@H](COS(N)(=O)=O)[C@@H]2F)cc1[C@@H]1OCCc2ccc(Cl)cc21` [Compound 988] was run?
A: 6.70 to 7.30

Q: How did the pIC50 turn out when `CN1Cc2sc(C(=O)c3cncnc3N[C@H]3C[C@H](O)[C@@H](COS(N)(=O)=O)[C@@H]3F)cc2C2(C1)NCCc1ccc(Cl)cc12` (stereo partly shown) [Compound 576] was run?
A: ≥ 7.30

Q: How did the pIC50 turn out when `Cc1sc(C(=O)c2cncnc2N[C@H]2C[C@H](O)[C@@H](COS(N)(=O)=O)[C@@H]2F)cc1C1NCCc2cnc(Cl)cc21` (stereo partly shown) [Compound 255] was run?
A: 6.70 to 7.30

Q: With `NS(=O)(=O)OC[C@H]1[C@H](F)[C@@H](Nc2ncncc2C(=O)c2cc3c(s2)COCC32NCCc3c(Cl)cc(Cl)cc32)C[C@@H]1O` (stereo partly shown) [Compound 564] as the molecule, how does the pIC50 read?
A: 6.70 to 7.30

Q: How did the pIC50 turn out when `Cc1sc(C(=O)c2cncnc2N[C@H]2C[C@H](O)[C@@H](COS(N)(=O)=O)[C@@H]2F)cc1[C@@H]1NCCc2ccccc21` [Compound 230] was run?
A: 6.70 to 7.30

Q: With `Cc1sc(C(=O)c2cncnc2N[C@H]2C[C@H](O)[C@@H](COS(N)(=O)=O)[C@@H]2F)cc1C1NCCc2cc(C#N)c(Cl)cc21` (stereo partly shown) [Compound 249] as the molecule, how does the pIC50 read?
A: 6.70 to 7.30

Q: With `NS(=O)(=O)OC[C@H]1[C@H](F)[C@@H](Nc2ncncc2C(=O)c2cc3c(s2)CCC[C@]32NCCc3cc(Cl)c(Cl)cc32)C[C@@H]1O` [Compound 672] as the molecule, how does the pIC50 read?
A: ≥ 7.30

Q: With `NS(=O)(=O)OC[C@H]1[C@H](F)[C@@H](Nc2ncncc2C(=O)c2cc3c(s2)C=C[C@]32NCCc3ccc(F)cc32)C[C@@H]1O` [Compound 346] as the molecule, how does the pIC50 read?
A: ≥ 7.30

Q: How did the pIC50 turn out when `NS(=O)(=O)OC[C@H]1[C@H](F)[C@@H](Nc2ncncc2C(=O)c2cc3c(s2)CCC[C@]32NCCc3cc(F)c(Cl)cc32)C[C@@H]1O` [Compound 671] was run?
A: ≥ 7.30

Q: How did the pIC50 turn out when `NS(=O)(=O)OC[C@H]1[C@H](F)[C@@H](Nc2ncncc2C(=O)c2cc3c(s2)CC[C@@]32OCCc3ccc(Cl)cc32)C[C@@H]1O` [Compound 706] was run?
A: < 6.70

Q: `CC1CN[C@]2(CCCc3sc(C(=O)c4cncnc4N[C@H]4C[C@H](O)[C@@H](COS(N)(=O)=O)[C@@H]4F)cc32)c2cc(Cl)ccc21` (stereo partly shown) [Compound 1022] was tested. Which pIC50 did it give?
A: ≥ 7.30

Q: With `NS(=O)(=O)OC[C@H]1[C@H](F)[C@@H](Nc2ncncc2C(=O)c2cc3c(s2)OC[C@]32NCCc3ccc(Cl)cc32)C[C@@H]1O` [Compound 147] as the molecule, how does the pIC50 read?
A: 6.70 to 7.30

Q: How did the pIC50 turn out when `NS(=O)(=O)OC[C@H]1[C@H](F)[C@@H](Nc2ncncc2C(=O)c2cc3c(s2)OC[C@]32NCCc3ccccc32)C[C@@H]1O` [Compound 141] was run?
A: 6.70 to 7.30

Q: How did the pIC50 turn out when `Cc1sc(C(=O)c2cncnc2N[C@H]2C[C@H](O)[C@@H](COS(N)(=O)=O)[C@@H]2F)cc1C1NCCc2cc(F)c(Cl)cc21` (stereo partly shown) [Compound 246] was run?
A: 6.70 to 7.30

Q: `NS(=O)(=O)OC[C@H]1[C@H](F)[C@@H](Nc2ncncc2C(=O)c2cc3c(s2)C(F)(F)C[C@@]32NCCc3ccc(Cl)cc32)C[C@@H]1O` [Compound 328] was tested. Which pIC50 did it give?
A: < 6.70

Q: With `CN(C)c1sc(C(=O)c2cncnc2N[C@H]2C[C@H](O)[C@@H](COS(N)(=O)=O)[C@@H]2F)cc1C1NCCc2ccc(Cl)cc21` (stereo partly shown) [Compound 263] as the molecule, how does the pIC50 read?
A: 6.70 to 7.30

Q: With `NS(=O)(=O)OC[C@H]1[C@H](F)[C@@H](Nc2ncncc2C(=O)c2cc3c(s2)CCC32OCCc3ccccc32)C[C@@H]1O` (stereo partly shown) [Compound 744] as the molecule, how does the pIC50 read?
A: < 6.70

Q: How did the pIC50 turn out when `CC1Cc2ccc(Cl)cc2[C@@]2(CCCc3sc(C(=O)c4cncnc4N[C@H]4C[C@H](O)[C@@H](COS(N)(=O)=O)[C@@H]4F)cc32)N1` (stereo partly shown) [Compound 1025] was run?
A: 6.70 to 7.30

Q: With `Cc1ccc2c(c1)[C@@]1(CCCc3sc(C(=O)c4cncnc4N[C@H]4C[C@H](O)[C@@H](COS(N)(=O)=O)[C@@H]4F)cc31)NCC2` [Compound 666] as the molecule, how does the pIC50 read?
A: 6.70 to 7.30

Q: `CC1=C[C@]2(NCCc3ccc(Cl)cc32)c2cc(C(=O)c3cncnc3N[C@H]3C[C@H](O)[C@@H](COS(N)(=O)=O)[C@@H]3F)sc21` [Compound 326] was tested. Which pIC50 did it give?
A: ≥ 7.30

Q: `C#Cc1sc(C(=O)c2cncnc2N[C@H]2C[C@H](O)[C@@H](COS(N)(=O)=O)[C@@H]2F)cc1C1NCCc2ccc(Cl)cc21` (stereo partly shown) [Compound 259] was tested. Which pIC50 did it give?
A: 6.70 to 7.30

Q: `CC(C)N1Cc2sc(C(=O)c3cncnc3N[C@H]3C[C@H](O)[C@@H](COS(N)(=O)=O)[C@@H]3F)cc2[C@@]2(C1)OCCc1ccc(Cl)cc12` [Compound 736] was tested. Which pIC50 did it give?
A: < 6.70
